# Reference: patent US20100105722A1, “Substituted 4,5,6,7-tetrahydrothienopyridines as KCNQ2/3 Modulators” (GRUENENTHAL GmbH, priority 2008, published 2010)
# Key:
# [1] = molecular target: T1, hKCNQ2/3 (Homo sapiens, UniProt O43525+O43526); experiment: Fluorescence assay using a voltage sensitive dye (fluorimetry); assay type: cell-based; details: for Emax at 10 µM: relative to retigabine = 100%
# T1 construct: expressed in transfected cells; host or cells: CHO-K1
# Protocol: Fluorescence Assay using a Voltage Sensitive Dye
# […] CHO-K1 cells expressing KCNQ2/3 channels are cultivated adherently at 37° C., 5% CO2 and 95% humidity in cell culture bottles (e.g. 80 cm^2 TC flasks, Nunc) with DMEM-high glucose (Sigma Aldrich, D7777) including 10% FCS (PAN Biotech, e.g. 3302-P270521) or alternatively MEM Alpha Medium (1×, liquid, Invitrogen, #22571), 10% fetal calf serum (FCS) (Invitrogen, #10270-106, heat-inactivated) and the necessary selection antibiotics.
# Before being sown out for the measurements, the cells are washed with a 1×DPBS buffer without Ca^2+/Mg^2+ (e.g. Invitrogen, #14190-094) and detached from the bottom of the culture vessel by means of Accutase (PAA Laboratories, #L11-007) (incubation with Accutase for 15 min at 37° C.). The cell count then present is determined using a CASY™ cell counter (TCC model, Schärfe System) in order subsequently to apply, depending on the density optimization for the individual cell line, 20,000-30,000 cells/well/100 μl of the described nutrient medium to 96-well measuring plates of the Corning™ CellBIND™ type (Flat Clear Bottom Black Polystyrene Microplates, #3340). Incubation is then carried out for one hour at room temperature, without gassing or adjusting the humidity, followed by incubation for 24 hours at 37° C., 5% CO2 and 95% humidity.
# The voltage-sensitive fluorescent dye from the Membrane Potential Assay Kit (Red™ Bulk format part R8123 for FLIPR, MDS Analytical Technologies™) is prepared by dissolving the contents of a vessel Membrane Potential Assay Kit Red Component A in 200 ml of extracellular buffer (ES buffer, 120 mM NaCl, 1 mM KCl, 10 mM HEPES, 2 mM CaCl2, 2 mM MgCl2, 10 mM glucose; pH 7.4). After removal of the nutrient medium, the cells are washed with 200 μl of ES buffer, then covered with a layer of 100 μl of the dye solution prepared above and incubated for 45 min at room temperature with the exclusion of light.
# The fluorescence measurements are carried out with a BMG Labtech FLUOstar™, BMG Labtech NOVOstar™ or BMG Labtech POLARstar™ instrument (525 nm excitation, 560 nm emission, Bottom Read mode). After incubation of the dye, 50 μl of the test substances in the desired concentrations, or 50 μl of ES buffer for control purposes, are introduced into separate cavities of the measuring plate and incubated for 30 min at room temperature while being shielded from light. The fluorescence intensity of the dye is then measured for 5 min and the fluorescence value F1 of each well is thus determined at a given, constant time. 15 μl of a […] KCl solution ([…]) are then added to each well. The change in fluorescence is subsequently measured until all the relevant measured values have been obtained (mainly 5-30 min). At a given time after KCl application, a fluorescence value F2 is determined, in this case at the time of the fluorescence peak.
# For calculation, the fluorescence intensity F2 is compared with the fluorescence intensity F1, and the agonistic activity of the target compound on the potassium channel is determined therefrom. F2 and F1 are calculated as follows: […]
# In order to determine whether a substance has agonistic activity, […]
# for example, can be compared with […]
# is determined by adding to the reaction batch only the buffer solution instead of the test substance, determining the value F1K of the fluorescence intensity, adding the potassium ions as described above, and measuring a value F2K of the fluorescence intensity. F2K and F1K are then calculated as follows: […]
# A substance has an agonistic activity on the potassium channel when […]
# Independently of the comparison of […]
# it is possible to conclude that a target compound has agonistic activity if an increase in […]
# is to be observed as the dosage of the target compound increases.
# Calculations of EC50 and IC50 values are carried out with the aid of ‘Prism v4.0’ software (GraphPad Software™).
# [2] = tested on: formalin-induced nociceptive behavior; experiment: Formalin test in the rat (phase II, chronic pain component); assay type: in vivo; details: for Formalin test rat i.v. @ 10 mg/kg % reduction in noiceptive behavior: comparison experiments table; for Formalin test rat i.v. % reduction in nociceptive behavior: phase II, Table 3
# Protocol: Formalin Test in the Rat The formalin test (Dubuisson, D. and Dennis, S. G., 1977, Pain, 4, 161-174) represents a model for both acute and chronic pain. In the studies presented here, the chronic pain component (phase II of the formalin test; time period 21-27 min after formalin administration) was evaluated. A biphase nociceptive reaction is induced in freely mobile test animals by a single formalin injection into the dorsal side of a rear paw, the reaction being detected by observation of three clearly distinguishable behavior patterns. Formalin is administered subcutaneously into the dorsal side of the right rear paw of each animal in a volume of 50 μl and a concentration of 5%. The vehicle and the test substances are administered intravenously 5 min, or orally 30 min, before the formalin injection. The specific changes in behavior, such as lifting and shaking of the paw, weight displacement of the animal and biting and licking reactions, are observed and recorded continuously up to 60 min after the formalin administration. […] Rats of the strain Sprague Dawley (Janvier, Belgium) are used as the animal strain. The weight of the animals is 180-200 g; the size of the group was n=10.
# [3] = molecular target: T1, hKCNQ2/3; experiment: Voltage clamp (patch-clamp) measurements on stably transfected hKCNQ2/3 CHO-K1 cell line; assay type: cell-based; details: at -40 mV, relative to retigabine (10 μM) = 100%, read-out: patch-clamp % Efficacy @ 10 μM (retigabine = 100%)
# Protocol: Voltage Clamp Measurements
# In order to confirm a KCNQ2/3-agonistic action of the substances electro-physiologically, patch-clamp measurements (Hamill O P, Marty A, Neher E, Sakmann B, Sigworth F J.: Improved patch-clamp techniques for high-resolution current recording from cells and cell-free membrane patches, Pflugers Arch. 1981 August; 391(2):85-100) were carried out in voltage clamp mode on a stably transfected hKCNQ2/3 CHO-K1 cell line. After formation of the gigaseal, the cells were first clamped at a holding potential of −60 mV. Thereafter, depolarizing voltage jumps were applied up to a potential of +20 mV (increment: 20 mV, duration: 1 second) in order to confirm the functional expression of KCNQ2/3-typical currents. The testing of the substances was carried out at a potential of −40 mV. The increase in current induced by retigabine (10 μM) at −40 mV was first recorded as a positive control on each cell. After complete washing out of the retigabine effect (duration: 80 s), the test substance (10 μM) was applied. The increase in current induced by the test substance was standardized to the retigabine effect and indicated as the relative efficacy (see below).
# [4] = 10 μM, comparison experiments table, read-out: Fluorimetry % Efficacy @ 10 μM (retigabine = 100%)
# [5] = CHO-K1, 10 μM, CHO-K1 cells expressing KCNQ2/3, Table 3, read-out: Fluorimetry % Efficacy @ 10 μM (reti-gabine = 100%)
# [6] = CHO-K1 cells expressing KCNQ2/3, Table 3
"Emax at 10 µM [1, 5] [%]","EC50 [1, 6] [nM]",Compound,further results
,,"O=C(CCC(=O)N1CCn2cccc2C1c1ccccc1)NCc1cccc(C(F)(F)F)c1 (stereo not drawn) [Example No. 2 of WO 2008/046582, reference compound]","Emax at 10 µM [1, 4]: 115%; EC50 ([1]; comparison experiments table): 2810 nM; Formalin test rat i.v. @ 10 mg/kg % reduction in noiceptive behavior [2]: no effect"
165,758,"O=C(CCC(=O)N1CCc2sccc2C1c1ccccc1)NCc1cccc(C(F)(F)F)c1 (stereo not drawn) [Illustrative compound 2, 4-oxo-4-(4-phenyl-6,7-dihydrothieno[3,2-c]pyridin-5(4H)-yl)-N-(3-(trifluoromethyl)benzyl)butanamide]","Emax at 10 µM [1, 4]: 145%; EC50 ([1]; comparison experiments table): 1440 nM; Emax at 10 µM [3]: 106%; Formalin test rat i.v. @ 10 mg/kg % reduction in noiceptive behavior [2]: 56%; Formalin test rat i.v. % reduction in nociceptive behavior ([2]; dose 10.0 mg/kg): 56 (10.0) %"
168,1690,O=C(CCC(=O)N1CCc2sccc2C1c1cccs1)NCc1cccc(C(F)(F)F)c1 (stereo not drawn) [compound 1],"Emax at 10 µM [1, 4]: 165%; EC50 ([1]; comparison experiments table): 760 nM; Emax at 10 µM [3]: 97%"
148,79,Cc1ccccc1C1c2ccsc2CCN1C(=O)CCC(=O)NCc1cccc(C(F)(F)F)c1 (stereo not drawn) [compound 8],Formalin test rat i.v. % reduction in nociceptive behavior ([2]; dose 4.64 mg/kg): 11 (4.64) %
74,62,O=C(CCC(=O)N1CCc2sccc2C1c1ccccc1)NCc1ccccc1C(F)(F)F (stereo not drawn) [compound 17],Formalin test rat i.v. % reduction in nociceptive behavior ([2]; dose 10.0 mg/kg): 15 (10.0) %
,108,O=C(CCC(=O)N1CCc2sccc2C1C1CC1)NCc1cccc(C(F)(F)F)c1 (stereo not drawn) [compound 260],Emax at 10 µM [3]: 91%; Formalin test rat i.v. % reduction in nociceptive behavior ([2]; dose 4.64 mg/kg): 46 (4.64) %
,160,O=C(CCC(=O)N1CCc2sccc2C1C1CCCC1)NCc1cccc(C(F)(F)F)c1 (stereo not drawn) [compound 263],
,596,O=C(CCC(=O)N1CCc2sccc2C1CCCc1ccccc1)NCc1cccc(C(F)(F)F)c1 (stereo not drawn) [compound 265],
,519,O=C(CCC(=O)N1CCc2sccc2C1c1ccccc1)N1CCc2ccc(C(F)(F)F)cc2C1 (stereo not drawn) [compound 269],
,431,O=C(CCC(=O)N1CCc2sccc2C1c1ccccc1)N1CCc2c(cccc2C(F)(F)F)C1 (stereo not drawn) [compound 271],
,323,Cc1ccccc1C1c2sccc2CCN1C(=O)CCC(=O)NCc1cccc(C(F)(F)F)c1 (stereo not drawn) [compound 274],
,962,O=C(CCC(=O)N1CCc2ccsc2C1C1CCCCC1)NCc1cccc(C(F)(F)F)c1 (stereo not drawn) [compound 275],
